Data taken from patent publication US20240391862A1, “(1,4,5-TRISUBSTITUTED-1H-PYRAZOL-3-YL)OXY-2-ALKOXY ALKYL ACIDS AND THEIR DERIVATIVES, THEIR SALTS AND THEIR USE AS HERBICIDAL AGENTS” (Bayer AKtiengesellschaft, priority 2021, published 2024).

Key:
[1] = test system: AMARE; test: Post-emergence herbicidal effect, greenhouse pot test; type: in vivo, Amaranthus retroflexus; conditions: visual rating about 3 weeks after treatment; for Post-emergence effect against AMARE: 320 g/ha
Description: (§1) • ALOMY: Alopecurus myosuroides SETVI: Setaria viridis • AVEFA: Avena fatua POLCO: Fallopia convolvulus • AMARE: Amaranthus retroflexus ECHCG: Echinochloa crus-galli • LOLRJ: Lolium rigidum STEME: Stellaria media • VERPE: Veronica persica MATIN: Tripleurospermum inodorum • DIGSA: Digitaria sanguinalis ABUTH: Abutylon threophrasti • TRZAS: Triticum aestivum VIOTR: Viola tricolor • BRSNW: Brassica napus ZEAMX: Zea mays • PHBPU: Ipomoea purpurea GLXMA: Glycine max • ORYSA: Oryza sativa HORMU: Hordeum murinum
(§2) Seeds of monocotyledonous and dicotyledonous weeds and crop plants are placed in sandy loam in plastic or organic planting pots, covered with soil and cultivated in a greenhouse under controlled growth conditions. 2 to 3 weeks after sowing, the trial plants are treated at the one-leaf stage. The compounds of the invention, formulated in the form of wettable powders (WP) or as emulsion concentrates (EC), are then sprayed onto the green parts of the plants as aqueous suspension or emulsion with addition of 0.5% additive at a water application rate of 600 l/ha (converted). After the test plants have been kept in the greenhouse under optimum growth conditions for about 3 weeks, the activity of the preparations is rated visually in comparison to untreated controls. For example, 100% activity=the plants have died, 0% activity=like control plants.
(§3) Tables 20a to 38c below show the effects/crop compatibilities of selected compounds of the general formula (I) on various harmful plants at an application rate corresponding to 20 to 320 g/ha, which were obtained by the trial procedure specified above.

[2] = test system: VIOTR; test: as above; type: in vivo, Viola tricolor
Description: as §1, §2, §3

[3] = test system: PHBPU; test: as above; type: in vivo, Ipomoea purpurea
Description: as §1, §2, §3

[4] = test system: SETVI; test: as above; type: in vivo, Setaria viridis
Description: as §1, §2, §3

[5] = test system: AVEFA; test: as above; type: in vivo, Avena fatua; conditions: visual rating about 3 weeks after treatment; for Post-emergence effect against AVEFA: 320 g/ha
Description: as §1, §2, §3

[6] = test system: LOLRI; test: as above; type: in vivo, Lolium rigidum; conditions: Lolium rigidum, 504 h, 320 g/ha, read-out: Post-emergence effect against LOLRI in %
Description: as §1, §2, §3

[7] = test system: ALOMY; test: as above; type: in vivo, Alopecurus myosuroides; conditions: visual rating about 3 weeks after treatment; for Post-emergence effect against ALOMY: 320 g/ha
Description: as §1, §2, §3

[8] = test system: POLCO; test: as above; type: in vivo, Fallopia convolvulus; conditions: 320 g/ha
Description: as §1, §2, §3

[9] = test system: VERPE; test: as above; type: in vivo, Veronica persica
Description: as §1, §2, §3

[10] = test system: DIGSA; test: as above; type: in vivo, Digitaria sanguinalis; conditions: visual rating about 3 weeks after treatment
Description: as §1, §2, §3

[11] = test system: MATIN; test: as above; type: in vivo, Tripleurospermum inodorum
Description: as §1, §2, §3

[12] = test system: ECHCG; test: as above; type: in vivo, Echinochloa crus-galli
Description: as §1, §2, §3

[13] = test system: ZEAMX; test: Post-emergence herbicidal effect and crop plant compatibility, greenhouse pot test; type: in vivo, Zea mays; conditions: 20 g/ha, one-leaf stage, rated visually after about 3 weeks vs untreated controls
Description: as §1, §2, §3

[14] = test system: ABUTH; test: Post-emergence herbicidal effect, greenhouse pot test; type: in vivo, Abutilon theophrasti; conditions: visual rating about 3 weeks after treatment
Description: as §1, §2, §3

[15] = test system: KCHSC; test: as above; type: in vivo
Experimental: as §2, with “plants. Tables 20a to 38c below show the effects/crop compatibilities of selected compounds of the general formula (I) on various harmful plants at an application rate corresponding to 20 to 320 g/ha, which were obtained by the trial procedure specified above.” for “plants.”

CCOC(=O)C(OC)Oc1nn(-c2ccccc2F)c(-c2ccc(F)nc2)c1Br (stereo not shown) [Example I-23]
Post-emergence effect against AMARE [1]: 90% | pest or weed control at 80 g/ha ([1]; Amaranthus retroflexus, 504 h, 80 g/ha, read-out: Post-emergence effect against AMARE): 80% | Post-emergence effect against VIOTR in % ([2]; 320 g/ha): 80% | pest or weed control at 20 g/ha ([2]; Viola tricolor, 504 h, 20 g/ha, read-out: Post-emergence effect against VIOTR in %): 80% | pest or weed control at 80 g/ha ([2]; Viola tricolor, 504 h, 80 g/ha, read-out: Post-emergence effect against VIOTR in %): 80% | Post-emergence effect against PHBPU in % ([3]; 320 g/ha): 90% | pest or weed control at 80 g/ha ([3]; Ipomoea purpurea, 504 h, 80 g/ha, read-out: Post-emergence effect against PHBPU in %): 80% | Post-emergence effect against SETVI in % ([4]; 320 g/ha): 90% | pest or weed control at 80 g/ha ([4]; Setaria viridis, 504 h, 80 g/ha, read-out: Post-emergence effect against SETVI in %): 80% | Post-emergence effect against AVEFA [5]: 80% | pest or weed control at 80 g/ha ([5]; Avena fatua, 504 h, 80 g/ha, read-out: Post-emergence effect against AVEFA): 80% | pest or weed control at 320 g/ha [6]: 90% | Post-emergence effect against ALOMY [7]: 90% | pest or weed control at 80 g/ha ([7]; Alopecurus myosuroides, 504 h, 80 g/ha, read-out: Post-emergence effect against ALOMY): 90% | pest or weed control at 320 g/ha ([8]; Fallopia convolvulus, 504 h, read-out: Post-emergence effect against POLCO in %): 80% | Post-emergence effect against VERPE in % ([9]; 80 g/ha): 90% | Post-emergence effect against VERPE in % ([9]; 320 g/ha): 90% | pest or weed control at 20 g/ha ([9]; Veronica persica, 504 h, 20 g/ha, read-out: Post-emergence effect against VERPE in %): 80% | Post-emergence effect against DIGSA ([10]; 320 g/ha): 90% | pest or weed control at 80 g/ha ([10]; Digitaria sanguinalis, 504 h, 80 g/ha, read-out: Post-emergence effect against DIGSA): 90% | Post-emergence effect against MATIN in % ([11]; 320 g/ha): 90% | pest or weed control at 20 g/ha ([11]; Tripleurospermum inodorum, 504 h, 20 g/ha, read-out: Post-emergence effect against MATIN in %): 80% | pest or weed control at 80 g/ha ([11]; Tripleurospermum inodorum, 504 h, 80 g/ha, read-out: Post-emergence effect against MATIN in %): 80% | Post-emergence effect against ECHCG in % ([12]; 320 g/ha): 90% | pest or weed control at 20 g/ha ([12]; Echinochloa crus-galli, 504 h, 20 g/ha, visual rating about 3 weeks after treatment, read-out: Post-emergence effect against ECHCG): 80% | pest or weed control at 80 g/ha ([12]; Echinochloa crus-galli, 504 h, 80 g/ha, read-out: Post-emergence effect against ECHCG in %): 80%

COC(=O)CCOC(=O)C(OC)Oc1nn(-c2ncccc2F)c(-c2ccc(F)nc2)c1C1CC1 (single isomer, unassigned) [Example I-80]
Post-emergence effect against AMARE [1]: 80% | Post-emergence effect against VIOTR in % ([2]; 80 g/ha): 80% | Post-emergence effect against VIOTR in % ([2]; 320 g/ha): 90% | Post-emergence effect against PHBPU in % ([3]; 80 g/ha): 90% | Post-emergence effect against PHBPU in % ([3]; 320 g/ha): 90% | Post-emergence effect against SETVI in % ([4]; 80 g/ha): 90% | Post-emergence effect against SETVI in % ([4]; 320 g/ha): 90% | Post-emergence effect against AVEFA [5]: 90% | Post-emergence effect at 20 g/ha against ZEAMX in % [13]: 20% | Post-emergence effect against ALOMY [7]: 90% | Post-emergence effect against POLCO in % [8]: 90% | Post-emergence effect against ABUTH ([14]; 80 g/ha): 80% | Post-emergence effect against ABUTH ([14]; 320 g/ha): 80% | Post-emergence effect against VERPE in % ([9]; 80 g/ha): 80% | Post-emergence effect against VERPE in % ([9]; 320 g/ha): 90% | Post-emergence effect against DIGSA ([10]; 80 g/ha): 80% | Post-emergence effect against DIGSA ([10]; 320 g/ha): 90% | Post-emergence effect against ECHCG ([12]; 20 g/ha, visual rating about 3 weeks after treatment): 90% | Post-emergence effect against ECHCG in % ([12]; 80 g/ha): 90% | Post-emergence effect against ECHCG in % ([12]; 320 g/ha): 90% | Post-emergence effect against KCHSC in % ([15]; 20 g/ha): 90% | Post-emergence effect against KCHSC in % ([15]; 80 g/ha): 90% | Post-emergence effect against KCHSC in % ([15]; 320 g/ha): 90%
